# Data from patent US20260335251A1, “RED BLOOD CELL-HITCHHIKING IONIC LIQUID COATED NANOPARTICLES FOR CROSSING THE BLOOD BRAIN BARRIER” (University of Mississippi, priority 2022, published 2026).
# Entries after “also recorded” stand apart in the source; their conditions may differ.
# Assays:
# [1] = tested on: red blood cells; experiment: Red blood cell hitchhiking of nanoparticles coated with the ionic liquid; type: cell-based; conditions: nanoparticles coated with this ionic liquid
# [2] = tested on: microglia, astrocytes, endothelial cells in brain; experiment: Confocal/widefield immunofluorescence of brain sections (cellular localization); type: in vivo, Sprague-Dawley rat; conditions: Iba-1, GFAP, von Willebrand factor
# Protocol: Confocal Fluorescence: Perfused and cryopreserved rat brains were sectioned using a microtome (Leica Biosystems, #CM3050S) at 20-micron thickness. The slides were washed twice with 1×PBS and permeabilized (with 0.1% Triton-X, 0.1% BSA in PBS) for 30 min at 25° C. The permeabilized slides were blocked (1% BSA, 1% normal goat serum in PBS) for an additional 30 min at 25° C. and followed by probing with primary rabbit-anti-IBal (1:200 dilution) or […] (1:250 dilution) for 90 min at 25° C. At the end of the incubation, the slides were washed 3x with PBS and followed by incubation with secondary antibodies (Texas Red Goat-anti Rabbit, 1:500 for IBa1 and Alexa 488 goat anti-mouse, 1:500 for GFP), 1 hr at 25° C. To stain cellular nuclei, Hoechst stain was used at 1:10000 dilution. All dilutions represented as (vol/vol). The slides were washed 3× with 1×PBS and mounted with antifade media and kept at 4° C. for further analysis with confocal microscopy. […]
# To both qualitatively and quantitatively confirm IL-PLGA NP selectivity for cells comprising the HIV reservoir, brain sections (40 μm) collected from rats used above were co-labeled for protein markers of astrocytes (GFAP; FIG. 3B) and microglia (Iba-1; FIG. 3C) with a Hoechst nuclear counterstain (FIG. 3A). […]
# [3] = Abacavir detection in brain regions (1H-NMR); type: in vivo, Sprague-Dawley rat; conditions: 6 h; IL-PLGA NPs with 60 μg/mL ABC, intra-carotid; n=3/group
# Protocol: Abacavir Detection in the Brain: In parallel with DiD-NP injections, Sprague-Dawley rats injected with IL-PLGA NPs (either without cargo or with 60 μg/mL ABC, n=3) were sacrificed at 6 hours post-injection, and whole organs were processed, and frozen post-mortem as described above in Biodistribution. In order to assess to areas of biodistribution of abacavir within the brain, the following regions were sliced and homogenized in a 1:1 mixture of 1×PBS (pH 7.4) and Acetonitrile constituting a total homogenate volume of 500 μL per sample: striatum, midbrain, interbrain, cerebellum, hypothalamus, cerebral cortex, & hippocampus. […] A range of 500-600 μL of liquid filtrate was recovered across all samples, which were all delivered into clean NMR tubes and topped 10% (v/v) with D2O to be evaluated for presence of drug by ^1H NMR at 400 MHz with 90% H2O/10% D2O water suppression.
# Once biodistribution was determined with DiD, a new set of healthy, 8-week-old, female, Sprague Dawley rats with in-dwelling carotid catheters received IV infusions (under the same conditions) with either empty, or ABC-encapsulated, IL-coated PLGA NPs (n=3/group). Sites of regional distribution of abacavir cargo were evaluated within the brain (at the same 6-hour endpoint). […]
# [4] = Quantitative encapsulation of ABC (1H NMR); type: physicochemical; conditions: for ABC encapsulated: ~1 mg/mL NPs, from an added 74.1 μg/mL, quantitative 1H NMR
# Protocol: Quantitative encapsulation of ABC (^1H NMR): PLGA and CA2HA 1:2 PLGA NPs were synthesized in deuterium oxide as described previously, and then resuspended to 500 μL (2 mg/mL) to quantitatively measure composition of the IL coating on the surface of the PLGA NPs with 20 μL Tetramethylsilane (TMS) internal quantification standard: ^1H NMR (400 MHz, D2O) δ 6.85 (dt, J=15.8, 7.0 Hz, 27H), 5.85 (dt, J=15.7, 1.5 Hz, 28H), 4.78 (d, J=1.3 Hz, 7140H), 4.09-4.02 (m, 27H), 3.81-3.71 (m, 21H), 3.64 (dd, J=11.8, 4.5 Hz, 45H), 3.60-3.47 (m, 73H), 3.25 (s, 136H), 2.72 (d, J=1.3 Hz, 14964H), 2.19 (qd, J=7.2, 1.6 Hz, 69H), 1.56-1.46 (m, 47H), 0.91 (t, J=7.4 Hz, 96H), 0.00 (s, 12H).
# To break open the NPs, bare PLGA NPs and IL-PLGA NPs were first sonicated at 60° C. for 30 minutes to destroy the outer IL coating integrity, evidenced by a phase separation of cloudiness in the IL-PLGA NPs. To next dissociate the IL coating from the polymer core, all particles were vortexed at 25° C. on the highest setting for 10 minutes (in 2-minute intervals). The particles were then stored at −80° C. for 2 minutes to protect the ABC drug while inducing a bulk phase separation, and then vortexed at the highest setting for 2 min at 25° C. Lastly, to extrude the abacavir from the polymer core, all NPs were 30 kDa MWCO centrifuge-filtered for 1 hour at 4500 RPM at 40° C. Filtrate smaller than 30 kDa was collected at the bottom of the tube and stored at −20° C., concentrated (2×) with D2O and evaluated for presence of drug by ^1H NMR at 400 MHz at the highest scan rate (proton64).
# As the appearance of drug peaks were very small compared to the IL, 2 μL of TMS was then used in particular to obtain a relative understanding of the size of the small emerging peaks. […] Representation of encapsulated ABC dose was then calculated: • 0.002 mL TMS (0.648 g/mL)=0.0013 g TMS • 0.0013 g TMS/88.22 g/mol TMS=0.0000146 mol TMS • 0.0000146 mol TMS (~0.03 integral ratio, 8.5 ppm & 0 ppm peak) ~4.38×10^−7 mol ABC • 4.38× 10-7 mol ABC (286.3 g/mol ABC) ~ (0.000125 g ABC/2) (ug total ~1 mg/mL) ~62.7 μg/mL ABC encapsulated
# [5] = tested on: HIV-1BaL; experiment: HIV-1 replication in human PBMCs (p24 antigen ELISA); type: cell-based, HIV-1 (in human PBMCs); conditions: days 3, 7, 10 post-infection; ABC alone or in NPs p<0.0001; empty IL-coated NPs p=0.04
# Protocol: HIV Expression and Cytotoxicity: 3 independent batches of bare and CA2HA 1:2-coated PLGA NPs were prepared with abacavir (ABC) as above but in sterile Milli-Q water and re-suspended to 1 mg/ml with sterile 1×PBS pH 7.4. As ~60 μg/mL of drug was estimated by quantitative NMR, PBMC cells were stimulated with 10 μg/ml of PHA for 4 days. Stimulated PBMC cells were harvested at 400×g, RT for 10 min. The cells at 2×10^6 cells/mL were used for each experimental condition and infected with 1 ng/ml of HIV-1 Bal+ in presence of 3 ng/ml of IL-2 and 2 μg/ml of polybrene. PBMC cells were treated in the absence or presence of nanoparticles at 10 µM final concentration. […] The cell viability was determined by trypan blue at each harvesting day and an aliquot of condition media was saved for further analysis on p24 antigen assay. […] The p24 antigen assay was performed according to manufacture protocol on experimental condition media collected on 3, 7, 10 days post HIV-1 infection for quantification of HIV-1.
# To assess the bioactivity of ART when encapsulated inside PLGA & IL-PLGA NPs, HIV-1 replication was assessed in human peripheral blood mononuclear cells (PBMCs) that were mock-infected or were infected with HIV-1BaL (1 ng/ml) for 10 days. […] Concentration of the HIV-1 capsid protein (p24, ng/ml) was assessed on days 3-, 7-, and 10 post-infection by enzyme-linked immunosorbent assay (ELISA) (FIG. 7).
Compound,Red blood cell hitchhiking [1],also measured
"CCC/C=C/C(=O)O [CA2HA 1:1, Choline 2-Hexenoate 1:1]",successfully hitchhike red blood cells,–
"CC/C(C)=C/C(=O)O [CA3ME2PE 1:1, Choline Trans-3-Methyl-Trans-2-Pentenoate 1:1]",successfully hitchhike red blood cells,–
"CCC/C=C/C(=O)O [CA2HA 1:2, Choline 2-Hexenoate 1:2]",–,Cellular localization in brain [2]: colocalizes with HIV reservoir cells
"CC/C=C(\C)C(=O)O [CAGAS 1:2, Choline trans-2-Methyl-2-Pentenoate 1:2]",successfully hitchhike red blood cells,–
"CCCCCCC(=O)O [CAHPA 1:1, Choline Heptanoate 1:1]",successfully hitchhike red blood cells,–
"Nc1nc(NC2CC2)c2ncn([C@H]3C=C[C@@H](CO)C3)c2n1 [ABC, abacavir]",–,"Abacavir regional brain accumulation [3]: accumulate most greatly in the cerebellum, interbrain, striatum, and midbrain regions; also recorded: lesser (but considerable) delivery to the hippocampus, cerebral cortex, and hypothalamus regions; Encapsulation efficiency (EE) of ABC ([4]; ABC 2%, estimated by quantitative 1H NMR): ~ 84.6%; ABC encapsulated [4]: ~ 62.7 μg/mL; ABC encapsulated ([4]; listed as abacavir (ABC)): ~ 60 μg/mL; HIV-1 viral replication (p24) vs HIV-infected cells [5]: significantly attenuated viral replication"
"CC/C=C/CC(=O)O [CA3HA 1:1, Choline 3-Hexenoate 1:1]",successfully hitchhike red blood cells,–
"CCC/C(C)=C/C(=O)O [CA3ME2HA 1:1, Choline Trans-3-Methyl-Trans-2-Hexenoate 1:1]",successfully hitchhike red blood cells,–
